Assay results reported in patent US10526646B2, “Chromogenic peroxidase substrates” (Dako Denmark A/S, priority 2015, dated 2020).
≈ marks a conversion by molar mass, not a printed value.

Experiments:
[1] = UV-VIS absorbance maxima of chromogenic conjugates and mixtures; format: physicochemical
Method: “Spectrally narrow” refers to a chromogen having less that 50 nm broadness at its maximum absorbance at half peak height by UV-VIS spectroscopy, measured in +99% water at pH, 6-8 in 10 μM concentration. A “magenta chromogen” is a spectrally narrow chromogen with peak absorbance between 525 and 530 nm, measured in +99% water at pH, 6.0-8.0 in 10 μM concentration. A “greenish-yellow chromogen” is a chromogen with peak absorbance below 475 nm and less than 10% absorbance at 530 nm or above relative to the peak absorbance, measured in +99% water at pH, 6.0-8.0 in 10 μM concentration. A “yellow chromogen” is a chromogen with peak absorbance below 505 nm and less than 10% absorbance at 530 nm or above relative to the peak absorbance, measured in +99% water at pH, 6.0-8.0 in 10 μM concentration. A “cyan chromogen” is a chromogen having maximal absorbance above 615 nm and less than 10% relative absorbance at any wavelength between 530 and 400 nm relative to the peak absorbance, measured in +99% water at pH, 6.0-8.0 m 10 μM concentration. An “orange chromogen” is a “spectrally narrow” chromogen that has maximum absorbance between 495 and 520 nm, measured in +99% water at pH, 6-8 in 10 μM concentration. A “dichroic chromogen” is a chromogen that has at least two absorbance maxima, separated by a local minimum at least 50 nm wide and one further global minimum between 390 and 700 nm measured in water between pH 6 and 8.

HRP [2] = molecular target: T1, HRP (Armoracia rusticana, UniProt P00433); assay: IHC staining of FFPE human tissues and Her2 control cell lines, Envision+ Dual link HRP visualization, DAB as reference; design: species or system horse radish; conditions: for colour of IHC stain / stain intensity and crispness compared with DAB: tested in 0.4 to 1 mM; for stain intensity and crispness compared with DAB: low and medium expression targets; for IHC staining performance of Rhodamine 6G derivatives with different 4-hydroxy cinnamic acid derivatives: peroxidase substrate moiety varied
T1 construct: purchased Dako K4061
T1 sequence (P00433 31-338): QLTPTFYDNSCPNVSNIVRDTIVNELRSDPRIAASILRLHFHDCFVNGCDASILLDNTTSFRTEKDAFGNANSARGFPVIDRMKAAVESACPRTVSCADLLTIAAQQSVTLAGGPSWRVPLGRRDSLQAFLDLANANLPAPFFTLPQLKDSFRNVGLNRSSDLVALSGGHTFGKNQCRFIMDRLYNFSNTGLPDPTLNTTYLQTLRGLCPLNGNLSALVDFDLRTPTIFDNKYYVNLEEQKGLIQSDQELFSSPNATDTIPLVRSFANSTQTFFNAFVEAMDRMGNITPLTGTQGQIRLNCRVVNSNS

[3] = Solubility in substrate buffer as function of percentage of NMP; format: physicochemical
Method: Only Compound 6 having a piperazine amide stands out by absorbing at 536 nm, around 5 nm above the esters comprising Compounds 2, 13, 14 and 15 all with abs max within 531-533 nm. […] Addition of NMP to the buffer in all cases increased chromogen solubility. See result table below of the solubility of 2, 13 and 15 as function of percentage of NMP as organic co solvent, 0% representing neat aqueous buffer 50 mM imidazole: HCl, pH 6.8, 3% and 10% said percent.

HRP [4] = molecular target: T1, HRP; assay: Tissue staining with mixtures of chromogens in chromogen buffer; design: species or system horse radish; conditions: alone
HRP [5] = molecular target: T1, HRP; assay: Triple immunohistochemical staining (Ki67, CD20, Her2) on Dako Autostainer; design: species or system horse radish; conditions: 0.5 mM conjugate, 50 mM imidazole:HCl pH 6.8, 0.003% hydrogen peroxide, 2.5% NMP, 5 min
Method: The exemplary triple staining method employed DAB in combination with Compounds 2 and 8, on a Dako Autostainer at room temperature. The steps of the method included: • 1. Blocking of endogenous peroxidase with peroxidase block (Dako S2023), 5 min. • 2. antiKi67 RTU antibody (Dako IR626), 20 mm • 3. Envision+dual Link HRP (Dako K4061), 20 min • 4. DAB (Dako K3468) 5 min. • 5. HRP quenching with peroxidase block (Dako S2023) with addition of 5 mg/mL alphacyano cinnamic acid, 5 min. • 6. antiCD20cy RTU antibody (Dako IR604), 20 min • 7. Envision+dual Link HRP (Dako K4061), 20 min • 8. 0.5 mM compound 2 in 50 mM imidazole: HCl pH 6.8, 0.003% hydrogen peroxide and 2.5% NMP, 5 min. • 9. HRP quenching with peroxidase block (Dako S2023) with addition of 5 mg/mL alphacyano cinnamic acid, 5 min. • 10. antiHer2 (Dako vial ST301 from HercepTest kit SK001) 20 min. • 11. Envision+dual Link HRP (Dako K4061), 20 min • 12. 0.5 mM compound 8 in 50 mM imidazole: HCl pH 6.8, 0.003% hydrogen peroxide and 2.5% NMP, 5 min. • 13. Counter stain with haematoxylin (Dako S3301)

[6] = imidazole:HCl buffer (substrate buffer) with 3% NMP, aqueous buffer, 3% NMP in 50 mM imidazole:HCl pH 6.8
[7] = imidazole:HCl buffer (substrate buffer) with 10% NMP, aqueous with cosolvent or surfactant or cyclodextrin, 10% NMP in 50 mM imidazole:HCl pH 6.8
[8] = imidazole:HCl buffer (substrate buffer), 0% NMP, neat aqueous buffer 50 mM imidazole:HCl pH 6.8

Absp nm (max) [1] [nm]	colour of IHC stain (HRP [2])	stain intensity and crispness compared with DAB (HRP [2])	SMILES	also measured
			CC/N=c1\cc2oc3cc(NCC)c(C)cc3c(-c3ccccc3C(=O)N3CCN(C(=O)c4ccc(-c5c6ccc(=O)cc-6oc6cc(O)ccc56)c(C(=O)O)c4)CC3)c-2cc1C [6G compound]	colour of the compound as chromogen [1]: orange
505			N=c1ccc2c(-c3ccccc3C(=O)OCC(=O)NCCOCCOCCNC(=O)/C=C/c3ccc(O)cc3)c3ccc(N)cc3oc-2c1 [Compound 1, Rhodamine 110-L12-Cou]	
561	purple stains	matched DAB in intensity and crispness	CCN(CC)c1ccc2c(-c3ccccc3C(=O)OCC(=O)NCCOCCOCCNC(=O)/C=C/c3ccc(O)cc3)c3ccc(=[N+](CC)CC)cc-3oc2c1 [Compound 4, RhodamineB-L12-Cou]	
584			O=C(/C=C/c1ccc(O)cc1)NCCOCCOCCNC(=O)COC(=O)c1ccccc1C1=c2cc3c4c(c2Oc2c1cc1c5c2CCCN5CCC1)CCC[N+]=4CCC3 [Compound 5, Rhodamine101-L12-Cou]	
536	slightly purplish red stains	matched DAB in intensity and crispness	CC/N=c1\cc2oc3cc(NCC)c(C)cc3c(-c3ccccc3C(=O)N3CCN(CC(=O)NCCOCCOCCNC(=O)/C=C/c4ccc(O)cc4)CC3)c-2cc1C [Compound 6, Rhodamine 6G-Pip-L12-Cou]	solubility in the substrate buffer relative to Compound 2 [3]: significantly increased solubility
561			CN(C)c1ccc2c(-c3ccccc3C(=O)N3CCN(CC(=O)NCCOCCOCCNC(=O)/C=C/c4ccc(O)cc4)CC3)c3ccc(=[N+](C)C)cc-3oc2c1 [Compound 7, TM-Rhodamine-Pip-L12-Cou]	
458	slightly greenish yellow stains	almost matched DAB in intensity	O=C(O)COc1ccc2c(-c3ccccc3C(=O)OCC(=O)NCCOCCOCCNC(=O)/C=C/c3ccc(O)cc3)c3ccc(=O)cc-3oc2c1 [Compound 9, (O-carboxymethyl)-Flu-L12-Cou]	colour of stain of compound alone (HRP [4]): unpleasing greenish yellow
503			O=C(/C=C/c1ccc(O)cc1)NCCOCCOCCNC(=O)COC(=O)c1ccccc1-c1c2ccc(=O)cc-2oc2cc(O)ccc12 [Compound 10, Flu-L12-Cou]	colour of stain of compound alone (HRP [4]): brownish hue
517			O=C(/C=C/c1ccc(O)cc1)NCCOCCOCCNC(=O)COC(=O)c1ccccc1-c1c2cc(Cl)c(=O)cc-2oc2cc(O)c(Cl)cc12 [Compound 11, 2,7Dichloro-Flu-L12-Cou]	
508			O=C(/C=C/c1ccc(O)cc1)NCCOCCOCCNC(=O)CN1CCN(C(=O)c2ccccc2-c2c3ccc(=O)cc-3oc3cc(O)ccc23)CC1 [Compound 12, Flu-Pip-L12-Cou]	
532	red stains	matched DAB in intensity and crispness	CC/N=c1\cc2oc3cc(NCC)c(C)cc3c(-c3ccccc3C(=O)OCC(=O)NCCNC(=O)/C=C/c3ccc(O)cc3)c-2cc1C [Compound 13, Rho6G-L6-Cou]	solubility [3, 6]: 900 µM (≈ 595 µg/mL); solubility [3, 7]: 1800 µM (≈ 1190 µg/mL); solubility [3, 8]: 500 µM (≈ 330 µg/mL); solubility in the substrate buffer relative to Compound 2 [3]: reduced solubility
531	red stains	matched DAB in intensity and crispness	CC/N=c1\cc2oc3cc(NCC)c(C)cc3c(-c3ccccc3C(=O)OCCN3CCN(CC(=O)NCCOCCOCCNC(=O)/C=C/c4ccc(O)cc4)CC3)c-2cc1C [Compound 14, Rhodamine 6G-Et-Pip-L12-Cou]	solubility in the substrate buffer relative to Compound 2 [3]: significantly increased solubility
531			CC/N=c1\cc2oc3cc(NCC)c(C)cc3c(-c3ccccc3C(=O)OCC(=O)NCCOCCOCCNC(=O)/C=C/c3ccc(O)c(O)c3)c-2cc1C [Compound 16, Rhodamine 6G-L12-Caf]	IHC staining performance of Rhodamine 6G derivatives with different 4-hydroxy cinnamic acid derivatives (HRP [2]): performed poorly
531			CC/N=c1\cc2oc3cc(NCC)c(C)cc3c(-c3ccccc3C(=O)OCC(=O)NCCOCCOCCNC(=O)/C=C/c3ccc(O)cc3O)c-2cc1C [Compound 17, Rhodamine 6G-L12-2,4-OH-Cin]	IHC staining performance of Rhodamine 6G derivatives with different 4-hydroxy cinnamic acid derivatives (HRP [2]): strong stains but also some background
531			CC/N=c1\cc2oc3cc(NCC)c(C)cc3c(-c3ccccc3C(=O)OCC(=O)NCCOCCOCCNC(=O)/C=C/c3ccc(O)c(OC)c3)c-2cc1C [Compound 18, Rhodamine 6G-12-Fer]	IHC staining performance of Rhodamine 6G derivatives with different 4-hydroxy cinnamic acid derivatives (HRP [2]): performed acceptably
531			CC/N=c1\cc2oc3cc(NCC)c(C)cc3c(-c3ccccc3C(=O)OCC(=O)NCCOCCOCCNC(=O)/C=C/c3cc(OC)c(O)c(OC)c3)c-2cc1C [Compound 19, Rhodamine 6G-L12-Sin]	IHC staining performance of Rhodamine 6G derivatives with different 4-hydroxy cinnamic acid derivatives (HRP [2]): performed poorly
			CNCCNC [Compound 34A, N,N′-dimethyl ethylenediamine]	absorbance of Rhodamine 6G secondary amide / ester derivatives [1]: 531 nm
			CCN(CC)c1ccc(C(=C2C=CC(=[N+](CC)CC)C=C2)c2cc(OCC(=O)NCCOCCOCCNC(=O)/C=C/c3ccc(O)cc3)c(S(=O)(=O)O)cc2S(=O)(=O)O)cc1 [Compound 35]	absorbance maximum ([1]; in neutral water): 640 nm
			Nc1ccc(-c2ccc(N)c(N)c2)cc1N [DAB, 3,3′-diaminobenzidine, reference compound]	stain produced in triple staining (HRP [5]): brown ki67 nuclear stain; staining in the high expression range (HRP [2]; very high expression targets, trained observers): tended to over-stain and blackout morphological details
			CC/N=c1\cc2oc3cc(NCC)c(C)cc3c(-c3ccccc3C(=O)N3CCN(C(=O)c4ccccc4-c4c5ccc(=O)cc-5oc5cc(OCC(=O)NCCOCCOCCNC(=O)OC(C)(C)C)ccc45)CC3)c-2cc1C [Formula XIVb]	colour of the compound as chromogen [1]: orange-red color

SMILES	Absp nm (max) [1] [nm]	colour of IHC stain (HRP [2])	stain intensity and crispness compared with DAB (HRP [2])	also measured
CN(C)c1ccc2c(-c3ccccc3C(=O)OCC(=O)NCCOCCOCCNC(=O)/C=C/c3ccc(O)cc3)c3ccc(=[N+](C)C)cc-3oc2c1 [Compound 3, TetramethylRhodamine-L12-Cou]	556	slightly redish purple stains	more than matched DAB in intensity and crispness	
CC/N=c1\cc2oc3cc(NCC)c(C)cc3c(-c3ccccc3C(=O)OCC(=O)NCCOCCOCCNC(=O)COCC(=O)NCCOCCOCCNC(=O)/C=C/c3ccc(O)cc3)c-2cc1C [Compound 15, Rho6G-L27-Cou]	533	deep blue stains	more than matched DAB in intensity and crispness	solubility [3, 6]: 1900 µM (≈ 1890 µg/mL); solubility [3, 7]: 6000 to 7000 µM (≈ 5970 to 6970 µg/mL); solubility [3, 8]: 1700 µM (≈ 1690 µg/mL); solubility in the substrate buffer relative to Compound 2 [3]: significantly increased solubility
